In patent US10253052B2, “HBED-bisphosphonates, radiometal conjugates and their use as theranostic agents” (Five Eleven Pharma Inc., priority 2015, dated 2019):

Columns and labels:
[1] = In vitro binding to hydroxyapatite; conditions: 20 mg hydroxyapatite in saline, 10 min at room temperature
Procedure: Hydroxyapatite (20 mg, Sigma-Aldrich, reagent grade powder) was incubated in isotonic saline (1 mL) for 24 h. Subsequently, either ^68Ga labeled 1a-h, 2, 3, BPAMD, or [^18F]NaF (1 μCi) was added to the hydroxyapatite suspension. After vortexing for 10 seconds, the suspension was incubated for 10 min at room temperature. The samples were then centrifuged at 10,000 rpm for 3 min and the supernatant was removed. The hydroxyapatite fraction was washed twice with saline (1 mL). Radioactivity in the combined supernatants and the hydroxyapatite fraction was measured using a gamma counter. The proportion of the ^68Ga complex binding to hydroxyapatite was determined as percent of ^68Ga absorbed to hydroxyapatite.

[2] = In vivo biodistribution in mice; design: species or system normal CD-1 male mice; conditions: iv
Procedure: Biodistribution experiments were performed by intravenously administering ^68Ga labeled 1a-h, 2, 3, BPAMD, and [^18F]NaF into normal, healthy male CD-1 mice (25-30 g). The injection activity was 20-30 μCi/animal. […] Organs of interest were harvested, weighed, and counts of radioactivity were measured by a gamma counter. The biodistribution of each sample was calculated as a percentage of the injected dose per gram of wet tissue weight (% ID/g). Tibia and femur bones were harvested and counted as bone samples.

O=C([O-])CN(CCN(CC(=O)[O-])Cc1cc(CCC(=O)O)ccc1[O-])Cc1cc(CCC(=O)O)ccc1[O-].[68Ga+3] [[^68Ga]HBED-CC, reference compound]
Hydroxyapatite Binding (%) [1]: 0.4±0.1% | bone to blood ratio ([2]; 2 min): 0.2 | bone to muscle ratio ([2]; 2 min): 0.8 | Biodistribution: Blood ([2]; 2 min post injection): 7.66 ± 0.75 % dose/g | Biodistribution: Bone ([2]; 2 min post injection): 1.85 ± 0.05 % dose/g | Biodistribution: Brain ([2]; 2 min post injection): 0.29 ± 0.08 % dose/g | Biodistribution: Heart ([2]; 2 min post injection): 2.74 ± 0.34 % dose/g | Biodistribution: Kidney ([2]; 2 min post injection): 27.2 ± 0.64 % dose/g | Biodistribution: Liver ([2]; 2 min post injection): 1.75 ± 0.08 % dose/g | Biodistribution: Lung ([2]; 2 min post injection): 4.27 ± 0.34 % dose/g | Biodistribution: Muscle ([2]; 2 min post injection): 2.30 ± 0.13 % dose/g | Biodistribution: Pancreas ([2]; 2 min post injection): 1.60 ± 0.12 % dose/g | Biodistribution: Skin ([2]; 2 min post injection): 3.18 ± 0.43 % dose/g | Biodistribution: Spleen ([2]; 2 min post injection): 1.69 ± 0.18 % dose/g | bone to blood ratio ([2]; 30 min): 0.3 | bone to muscle ratio ([2]; 30 min): 0.9 | Biodistribution: Blood ([2]; 30 min (0.5 hr) post injection): 0.83 ± 0.09 % dose/g | Biodistribution: Bone ([2]; 30 min (0.5 hr) post injection): 0.28 ± 0.06 % dose/g | Biodistribution: Brain ([2]; 30 min (0.5 hr) post injection): 0.04 ± 0.01 % dose/g | Biodistribution: Heart ([2]; 30 min (0.5 hr) post injection): 0.34 ± 0.06 % dose/g | Biodistribution: Kidney ([2]; 30 min (0.5 hr) post injection): 3.22 ± 0.41 % dose/g | Biodistribution: Liver ([2]; 30 min (0.5 hr) post injection): 0.38 ± 0.08 % dose/g | Biodistribution: Lung ([2]; 30 min (0.5 hr) post injection): 0.58 ± 0.07 % dose/g | Biodistribution: Muscle ([2]; 30 min (0.5 hr) post injection): 0.32 ± 0.06 % dose/g | Biodistribution: Pancreas ([2]; 30 min (0.5 hr) post injection): 0.26 ± 0.01 % dose/g | Biodistribution: Skin ([2]; 30 min (0.5 hr) post injection): 0.64 ± 0.08 % dose/g | Biodistribution: Spleen ([2]; 30 min (0.5 hr) post injection): 0.26 ± 0.04 % dose/g | bone to blood ratio ([2]; 60 min): 1.7 | bone to muscle ratio ([2]; 60 min): 2.3 | Biodistribution: Blood ([2]; 60 min (1 hr) post injection): 0.14 ± 0.04 % dose/g | Biodistribution: Bone ([2]; 60 min (1 hr) post injection): 0.25 ± 0.16 % dose/g | Biodistribution: Brain ([2]; 60 min (1 hr) post injection): 0.02 ± 0.01 % dose/g | Biodistribution: Heart ([2]; 60 min (1 hr) post injection): 0.17 ± 0.11 % dose/g | Biodistribution: Kidney ([2]; 60 min (1 hr) post injection): 0.91 ± 0.32 % dose/g | Biodistribution: Liver ([2]; 60 min (1 hr) post injection): 0.11 ± 0.02 % dose/g | Biodistribution: Lung ([2]; 60 min (1 hr) post injection): 0.19 ± 0.04 % dose/g | Biodistribution: Muscle ([2]; 60 min (1 hr) post injection): 0.11 ± 0.04 % dose/g | Biodistribution: Pancreas ([2]; 60 min (1 hr) post injection): 0.13 ± 0.05 % dose/g | Biodistribution: Skin ([2]; 60 min (1 hr) post injection): 0.09 ± 0.07 % dose/g | Biodistribution: Spleen ([2]; 60 min (1 hr) post injection): 0.12 ± 0.02 % dose/g | bone to blood ratio ([2]; 120 min): 12 | bone to muscle ratio ([2]; 120 min): 3.3 | Biodistribution: Blood ([2]; 120 min post injection): 0.01 ± 0.00 % dose/g | Biodistribution: Bone ([2]; 120 min post injection): 0.18 ± 0.06 % dose/g | Biodistribution: Brain ([2]; 120 min post injection): 0.02 ± 0.00 % dose/g | Biodistribution: Heart ([2]; 120 min post injection): 0.09 ± 0.00 % dose/g | Biodistribution: Kidney ([2]; 120 min post injection): 0.08 ± 0.05 % dose/g | Biodistribution: Liver ([2]; 120 min post injection): 0.04 ± 0.02 % dose/g | Biodistribution: Lung ([2]; 120 min post injection): 0.07 ± 0.02 % dose/g | Biodistribution: Muscle ([2]; 120 min post injection): 0.05 ± 0.02 % dose/g | Biodistribution: Pancreas ([2]; 120 min post injection): 0.07 ± 0.01 % dose/g | Biodistribution: Skin ([2]; 120 min post injection): 0.03 ± 0.01 % dose/g | Biodistribution: Spleen ([2]; 120 min post injection): 0.13 ± 0.03 % dose/g

C[C@H](NC(=O)CCc1ccc([O-])c(CN(CCN(CC(=O)[O-])Cc2cc(CCC(=O)NC(P(=O)(O)O)P(=O)(O)O)ccc2[O-])CC(=O)[O-])c1)C(=O)O.[68Ga+3] [[^68Ga]1d]
Hydroxyapatite Binding (%) [1]: 95.1 ± 0.5% | bone to blood ratio ([2]; 2 min): 1.1 | bone to muscle ratio ([2]; 2 min): 5.9 | Biodistribution: Blood ([2]; 2 min post injection): 9.08 ± 0.58 % dose/g | Biodistribution: Bone ([2]; 2 min post injection): 10.1 ± 2.05 % dose/g | Biodistribution: Brain ([2]; 2 min post injection): 0.29 ± 0.05 % dose/g | Biodistribution: Heart ([2]; 2 min post injection): 2.99 ± 0.26 % dose/g | Biodistribution: Kidney ([2]; 2 min post injection): 25.3 ± 3.89 % dose/g | Biodistribution: Liver ([2]; 2 min post injection): 1.89 ± 0.16 % dose/g | Biodistribution: Lung ([2]; 2 min post injection): 4.83 ± 0.25 % dose/g | Biodistribution: Muscle ([2]; 2 min post injection): 1.72 ± 0.15 % dose/g | Biodistribution: Pancreas ([2]; 2 min post injection): 1.53 ± 0.14 % dose/g | Biodistribution: Skin ([2]; 2 min post injection): 2.39 ± 0.13 % dose/g | Biodistribution: Spleen ([2]; 2 min post injection): 1.72 ± 0.24 % dose/g | bone to blood ratio ([2]; 30 min): 29 | bone to muscle ratio ([2]; 30 min): 64 | Biodistribution: Blood ([2]; 30 min (0.5 hr) post injection): 0.53 ± 0.13 % dose/g | Biodistribution: Bone ([2]; 30 min (0.5 hr) post injection): 15.3 ± 1.26 % dose/g | Biodistribution: Brain ([2]; 30 min (0.5 hr) post injection): 0.03 ± 0.00 % dose/g | Biodistribution: Heart ([2]; 30 min (0.5 hr) post injection): 0.26 ± 0.06 % dose/g | Biodistribution: Kidney ([2]; 30 min (0.5 hr) post injection): 2.14 ± 0.60 % dose/g | Biodistribution: Liver ([2]; 30 min (0.5 hr) post injection): 0.26 ± 0.09 % dose/g | Biodistribution: Lung ([2]; 30 min (0.5 hr) post injection): 0.45 ± 0.10 % dose/g | Biodistribution: Muscle ([2]; 30 min (0.5 hr) post injection): 0.24 ± 0.06 % dose/g | Biodistribution: Pancreas ([2]; 30 min (0.5 hr) post injection): 0.21 ± 0.12 % dose/g | Biodistribution: Skin ([2]; 30 min (0.5 hr) post injection): 0.42 ± 0.10 % dose/g | Biodistribution: Spleen ([2]; 30 min (0.5 hr) post injection): 0.21 ± 0.07 % dose/g | bone to blood ratio ([2]; 60 min): 144 | bone to muscle ratio ([2]; 60 min): 235 | Biodistribution: Blood ([2]; 60 min (1 hr) post injection): 0.10 ± 0.01 % dose/g | Biodistribution: Bone ([2]; 60 min (1 hr) post injection): 14.7 ± 0.50 % dose/g | Biodistribution: Brain ([2]; 60 min (1 hr) post injection): 0.01 ± 0.00 % dose/g | Biodistribution: Heart ([2]; 60 min (1 hr) post injection): 0.08 ± 0.01 % dose/g | Biodistribution: Kidney ([2]; 60 min (1 hr) post injection): 1.05 ± 0.17 % dose/g | Biodistribution: Liver ([2]; 60 min (1 hr) post injection): 0.12 ± 0.01 % dose/g | Biodistribution: Lung ([2]; 60 min (1 hr) post injection): 0.17 ± 0.01 % dose/g | Biodistribution: Muscle ([2]; 60 min (1 hr) post injection): 0.06 ± 0.00 % dose/g | Biodistribution: Pancreas ([2]; 60 min (1 hr) post injection): 0.06 ± 0.01 % dose/g | Biodistribution: Skin ([2]; 60 min (1 hr) post injection): 0.13 ± 0.01 % dose/g | Biodistribution: Spleen ([2]; 60 min (1 hr) post injection): 0.06 ± 0.00 % dose/g | bone to blood ratio ([2]; 120 min): 278 | bone to muscle ratio ([2]; 120 min): 417 | Biodistribution: Blood ([2]; 120 min post injection): 0.06 ± 0.02 % dose/g | Biodistribution: Bone ([2]; 120 min post injection): 17.0 ± 1.10 % dose/g | Biodistribution: Brain ([2]; 120 min post injection): 0.00 ± 0.00 % dose/g | Biodistribution: Heart ([2]; 120 min post injection): 0.06 ± 0.01 % dose/g | Biodistribution: Kidney ([2]; 120 min post injection): 0.91 ± 0.15 % dose/g | Biodistribution: Liver ([2]; 120 min post injection): 0.10 ± 0.01 % dose/g | Biodistribution: Lung ([2]; 120 min post injection): 0.09 ± 0.02 % dose/g | Biodistribution: Muscle ([2]; 120 min post injection): 0.04 ± 0.01 % dose/g | Biodistribution: Pancreas ([2]; 120 min post injection): 0.04 ± 0.01 % dose/g | Biodistribution: Skin ([2]; 120 min post injection): 0.09 ± 0.01 % dose/g | Biodistribution: Spleen ([2]; 120 min post injection): 0.05 ± 0.01 % dose/g
